This is an account of results in ChEMBL document CHEMBL4004874, “Synthesis and biological evaluation of C-3 aliphatic coumarins as vitamin K antagonists” (Bioorg Med Chem Lett, 2017).

The term Ki denotes a dissociation constant, usually derived from enzyme kinetics or from competition with a known ligand.

In data set [1] the target is T1, Vitamin K epoxide reductase complex subunit 1 (Rattus norvegicus, UniProt Q6TEK4).
T1 sequence (Q6TEK4 whole entry): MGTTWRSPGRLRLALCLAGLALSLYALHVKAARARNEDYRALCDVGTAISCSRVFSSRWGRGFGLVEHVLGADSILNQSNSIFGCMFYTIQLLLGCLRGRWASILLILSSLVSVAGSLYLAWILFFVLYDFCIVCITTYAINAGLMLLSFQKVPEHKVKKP
The data set is described as follows: Inhibition of VKORC1 in rat liver microsomes in presence of 0.003 to 0.2 mM vitamin K.

Data set [2] concerns Rattus norvegicus. The data set is described as follows: Anticoagulant activity in Sprague-Dawley rat assessed as increase of prothombin time at 10 mg/kg, po after 24 hrs relative to control. Type of data set: functional.
Data set [3] concerns Liver. As to the kind of experiment: Drug uptake in Sprague-Dawley rat liver assessed per gram of liver at 10 mg/kg, po by HPLC-UV analysis. Type of data set: ADME, organism-based. As to conditions: in vivo.
The test system of data set [4] is Rattus norvegicus. The data set is described as follows: Anticoagulant activity in Sprague-Dawley rat assessed as increase of prothombin time at 10 mg/kg, po after 7 hrs relative to control. Type of data set: functional.
In data set [5] the test system is Rattus norvegicus. The data set is described as follows: Anticoagulant activity in Sprague-Dawley rat assessed as increase of prothombin time at 10 mg/kg, po after 72 hrs relative to control. Type of data set: functional.
Data set [6] has as its system Liver. As to the kind of experiment: Drug uptake in Sprague-Dawley rat liver assessed per gram of liver at 10 mg/kg, po after 24 hrs by HPLC-UV analysis. Type of data set: ADME, organism-based. The note with it: in vivo.
The test system of data set [7] is Liver. As to the kind of experiment: Drug uptake in Sprague-Dawley rat liver assessed per gram of liver at 10 mg/kg, po after 7 hrs by HPLC-UV analysis. The note with it: in vivo. The class given is ADME, organism-based.
For data set [8], the system named is Liver. As to the kind of experiment: Drug uptake in Sprague-Dawley rat liver assessed per gram of liver at 10 mg/kg, po after 72 hrs by HPLC-UV analysis. Type of data set: ADME, organism-based. As to conditions: in vivo.

Turning to `CCCCCCCCCCCC(c1ccc(C(C)(C)C)cc1)c1c(O)c2ccccc2oc1=O` (stereo not given), the Ki in data set [1] was found to be 22000 nM.

Consider `C/C(=C\Cc1c(O)c2ccccc2oc1=O)CCCC(C)CCCC(C)CCCC(C)C` (stereo not given), for which the Ki in data set [1] worked out at 20 nM. Further, the “fold change (FC)” value in the data set with Rattus norvegicus [2] worked out at 1. In addition, the Drug uptake with Liver [3] turned out to be 1.3 µg/g.

On to `CCCCCCc1c(O)c2ccccc2oc1=O`, for which the Ki in data set [1] was 3900 nM.

For the compound `CCCCCCCCCCCC(c1ccc(Cl)cc1)c1c(O)c2ccccc2oc1=O` (stereo not given), the inhibition constant Ki in data set [1] was 20 nM. Besides, the entries for the “fold change (FC)” value with Rattus norvegicus [2], in the data set on Rattus norvegicus [4] and in the data set on Rattus norvegicus [5] were 4, 1 and 1, respectively. For the same compound, the Drug uptake in the data set on Liver [6] was 3 µg/g; with Liver [7], 13 µg; in the data set on Liver [8], 1 µg/g.

For `CCCCCCCCCCCc1c(O)c2ccccc2oc1=O`, in data set [1], the Ki came out at 60 nM.

For `CCCCCCCCCCCC(c1ccc(Cl)cc1Cl)c1c(O)c2ccccc2oc1=O` (stereo not given), in data set [1], the Ki came out at 90 nM. In addition, the “fold change (FC)” value with Rattus norvegicus [2] was 2; with Rattus norvegicus [5], 1. Besides, the values for the Drug uptake with Liver [6] and in the data set with Liver [8] were 3.5 µg/g and 0.7 µg/g, respectively.

Turning to `CCCCCCCCCCCC(c1ccc(OC)cc1)c1c(O)c2ccccc2oc1=O` (stereo not given), in data set [1], the Ki was 100 nM.

Take `CC(C)CCCC(C)CCCC(C)CCCC(C)CC(c1ccccc1)c1c(O)c2ccccc2oc1=O` (stereo not given): the Ki in data set [1] stood at 200 nM. For the same compound, the “fold change (FC)” value in the data set with Rattus norvegicus [2] came to 1. Also, in the data set with Liver [3] (BLD = below limit of detection), the Drug uptake result was “Bld”.

For the compound `CCCCCCCCCCCC(c1ccccc1)c1c(O)c2ccccc2oc1=O` (stereo not given), the Ki in data set [1] is 30 nM. The “fold change (FC)” value with Rattus norvegicus [2] came out at 1. The Drug uptake in the data set with Liver [6] came out at 0.7 µg/g.

Take `CCCCCCCCCCc1c(O)c2ccccc2oc1=O`: in data set [1], the Ki is 90 nM.

Regarding `CCCCCCCCCCCCc1c(O)c2ccccc2oc1=O`, the Ki in data set [1] was determined as 50 nM. In addition, the “fold change (FC)” value with Rattus norvegicus [2] was 1. The Drug uptake in the data set on Liver [6] was 0.7 µg/g.

In the case of `CCCCCCCCc1c(O)c2ccccc2oc1=O`, in data set [1], the inhibition constant Ki is 260 nM.

For the compound `CCCCCCCCCCCC(c1ccc(F)cc1)c1c(O)c2ccccc2oc1=O` (stereo not given), in data set [1], the Ki came out at 20 nM. For the same compound, the “fold change (FC)” value in the data set on Rattus norvegicus [2] was 2. Besides, the Drug uptake in the data set with Liver [6] amounted to 0.7 µg/g.

Turning to `CCC(c1ccccc1)c1c(O)c2ccccc2oc1=O` (stereo not given) [PHENPROCOUMON], the Ki in data set [1] was determined as 200 nM. In the data set on Rattus norvegicus [2], the “fold change (FC)” value stood at 5.5. Besides, the values for the Drug uptake in the data set on Liver [6] and with Liver [8] were 12.8 µg/g and 1.7 µg/g, respectively.

With `CC(C)CCCC(C)CCCC(C)CCCC(C)CCc1c(O)c2ccccc2oc1=O` (stereo not given), the Ki in data set [1] was 50 nM. Further, the “fold change (FC)” value with Rattus norvegicus [2] is recorded as 1. The Drug uptake result in the data set with Liver [3] (BLD = below limit of detection) is listed as “Bld”.
